# From patent publication US20070270429A1, “Function Inhibitor of Effector Cell” (priority 2003, published 2007)
# Tested on: human CD8-positive T cell
# Experiment: Allo-reaction growth test (class I-MLR) of human CD8-positive T cell with dendritic cell
# Format: cell-based
# Conditions: 5 days
# Experimental: After treating the cells with BrdU for a predetermined period of time, the plate was centrifuged (300×g, 10 minutes), and then turned upside down and lightly shaken to remove the labeled medium. The plate was dried (for about 15 minutes) using a hair dryer. A cell fixing and DNA denaturing solution (200 μl, attached to the kit) was added to each well and left alone for 30 minutes. After removing the cell fixing and DNA denaturing solution and further removing water, a peroxidase-labeled anti-BrdU antibody (anti-BrdU-POD reaction solution) (100 μl) (attached to the kit) was added thereto and left alone at room temperature for 90 minutes. The antibody solution was discarded, each well was washed three times with PBS (200 μl), water was discarded, and then the substrate solution (100 μl) (attached to the kit) was added thereto. After carrying out the enzyme reaction for a period of 5 to 30 minutes, 1 N sulfuric acid solution (25 μl) was added thereto and stirred on a shaker. The absorbance of samples was measured by a microplate reader (SPECTRAMAX-PRO) at 450 nm (control wavelength: 690 nm).
# A heparinized blood sample was collected from a human, healthy volunteer, and peripheral blood mononuclear cell (PBMC) was isolated by the density gradient centrifugation described in the above-described (2-1). CD8-positive T cell was isolated from this PBMC by the negative selection method described in the above-described (2-1).
# CD 14-positive cell was obtained by fractionating the PBMC obtained by the above-described method using VarioMACS (Miltenyl Biotec). Specifically, CD14 antigen was labeled with antibody magnetic beads by adding 20 μl of CD14 MicroBeads (Miltenyl Biotec) to 1×10^7 cells of the PBMC, mixing them and incubating at 6 to 12° C. for 15 minutes. The cells were washed once with an MACS buffer (PBS containing 2 mM EDTA and 0.5% bovine serum albumin (BSA)) (20 ml) (attached to the kit) and re-suspended in the MACS buffer (2 ml). […]
compound,measurement,setting,value
"CCCCN1C(=O)[C@@H]([C@H](O)C2CCCCC2)NC(=O)C12CCN(Cc1ccc(Cc3ccc(C(=O)O)cc3OC)cc1)CC2 [Compound (b), 4-[4-({(3R)-1-butyl-3-[(R)-cyclohexyl(hydroxy)methyl]-2,5-dioxo-1,4,9-triazaspiro[5.5]undec-9-yl}methyl)benzyl]-3-methoxybenzoic acid]",inhibition ratio of allo-reaction growth,0.1 μM,7.8%
same,inhibition ratio of allo-reaction growth,1 μM,17.6%
same,inhibition ratio of allo-reaction growth,10 μM,44.1%
